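96-well plates; 48 h exposure; 5 concentrations. Endpoints by linear interpolation between flanking doses. Not reached: highest tested concentration assigned. At the GI50, growth is halved. TGI: concentration producing complete growth inhibition.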
Tests used:
Assay in all cases: NCI anticancer screen, dose series, 48 h
HS 578T breast = tested on: HS 578T breast
NCI-H226 lung = tested on: NCI-H226 lung
CAKI-1 renal = tested on: CAKI-1 renal
SK-MEL-5 melanoma = tested on: SK-MEL-5 melanoma
T-47D breast = tested on: T-47D breast
A498 renal = tested on: A498 renal
TK-10 renal = tested on: TK-10 renal
HCT-15 colon = tested on: HCT-15 colon
UO-31 renal = tested on: UO-31 renal
EKVX NSCLC = tested on: EKVX NSCLC
MDA-MB-468 breast = tested on: MDA-MB-468 breast
MDA-MB-231 breast = tested on: MDA-MB-231 breast
BT-549 breast = tested on: BT-549 breast
HOP-92 NSCLC = tested on: HOP-92 NSCLC
UACC-62 melanoma = tested on: UACC-62 melanoma
MCF7 breast = tested on: MCF7 breast
SF-268 CNS = tested on: SF-268 CNS
OVCAR-8 ovarian = tested on: OVCAR-8 ovarian
OVCAR-5 ovarian = tested on: OVCAR-5 ovarian
CCRF-CEM leukemia = tested on: CCRF-CEM leukemia
ACHN renal = tested on: ACHN renal
OVCAR-3 ovarian = tested on: OVCAR-3 ovarian
SN12C renal = tested on: SN12C renal
SF-539 CNS = tested on: SF-539 CNS
PC-3 prostate = tested on: PC-3 prostate
SF-295 CNS = tested on: SF-295 CNS
UACC-257 melanoma = tested on: UACC-257 melanoma
NCI-H522 lung = tested on: NCI-H522 lung
K-562 leukemia = tested on: K-562 leukemia
M14 melanoma = tested on: M14 melanoma
A549 NSCLC = tested on: A549 NSCLC
RPMI-8226 leukemia = tested on: RPMI-8226 leukemia
MOLT-4 leukemia = tested on: MOLT-4 leukemia
HCC-2998 colon = tested on: HCC-2998 colon
HL-60(TB) leukemia = tested on: HL-60(TB) leukemia
MDA-MB-435 = tested on: MDA-MB-435
DU-145 prostate = tested on: DU-145 prostate
IGROV1 ovarian = tested on: IGROV1 ovarian
RXF 393 renal = tested on: RXF 393 renal
HOP-62 NSCLC = tested on: HOP-62 NSCLC
LOX IMVI melanoma = tested on: LOX IMVI melanoma
SNB-75 CNS = tested on: SNB-75 CNS
SK-MEL-2 melanoma = tested on: SK-MEL-2 melanoma
SK-MEL-28 melanoma = tested on: SK-MEL-28 melanoma
COLO 205 colon = tested on: COLO 205 colon
HCT-116 colon = tested on: HCT-116 colon
KM12 colon = tested on: KM12 colon
NCI-H23 lung = tested on: NCI-H23 lung
HT29 colon = tested on: HT29 colon
SNB-19 CNS = tested on: SNB-19 CNS
SK-OV-3 ovarian = tested on: SK-OV-3 ovarian
MALME-3M melanoma = tested on: MALME-3M melanoma
786-0 renal = tested on: 786-0 renal

Cn1cc(-c2cc3nc(-c4cn(C)c5ncc(Br)cc45)cc(N)n3n2)c2cc(Cl)ccc21
GI50 (HS 578T breast): 1.89 µM
TGI (HS 578T breast): 4.48 µM
GI50 (NCI-H226 lung): 1.99 µM
TGI (NCI-H226 lung): 4.42 µM
GI50 (CAKI-1 renal): 1.45 µM
TGI (CAKI-1 renal): 2.95 µM
GI50 (SK-MEL-5 melanoma): 1.82 µM
TGI (SK-MEL-5 melanoma): 4 µM
GI50 (T-47D breast): 1.58 µM
TGI (T-47D breast): 3.63 µM
GI50 (A498 renal): 7.39 µM
TGI (A498 renal): 24 µM
GI50 (TK-10 renal): 1.6 µM
TGI (TK-10 renal): 3.13 µM
GI50 (HCT-15 colon): 1.57 µM
TGI (HCT-15 colon): 3.16 µM
GI50 (UO-31 renal): 1.54 µM
TGI (UO-31 renal): 3.33 µM
GI50 (EKVX NSCLC): 1.48 µM
TGI (EKVX NSCLC): 3.34 µM
GI50 (MDA-MB-468 breast): 1.32 µM
TGI (MDA-MB-468 breast): 2.68 µM
GI50 (MDA-MB-231 breast): 1.43 µM
TGI (MDA-MB-231 breast): 2.89 µM
GI50 (BT-549 breast): 1.91 µM
TGI (BT-549 breast): 4.24 µM
GI50 (HOP-92 NSCLC): 1.86 µM
TGI (HOP-92 NSCLC): 3.74 µM
GI50 (UACC-62 melanoma): 1.47 µM
TGI (UACC-62 melanoma): 2.85 µM
GI50 (MCF7 breast): 1.64 µM
TGI (MCF7 breast): 3.25 µM
GI50 (SF-268 CNS): 2.11 µM
TGI (SF-268 CNS): 5.11 µM
GI50 (OVCAR-8 ovarian): 2.02 µM
TGI (OVCAR-8 ovarian): 4.96 µM
GI50 (OVCAR-5 ovarian): 1.52 µM
TGI (OVCAR-5 ovarian): 3.39 µM
GI50 (CCRF-CEM leukemia): 2.87 µM
TGI (CCRF-CEM leukemia): 9.95 µM
GI50 (ACHN renal): 1.55 µM
TGI (ACHN renal): 2.88 µM
GI50 (OVCAR-3 ovarian): 1.63 µM
TGI (OVCAR-3 ovarian): 3.25 µM
GI50 (SN12C renal): 1.72 µM
TGI (SN12C renal): 3.44 µM
GI50 (SF-539 CNS): 1.51 µM
TGI (SF-539 CNS): 2.88 µM
GI50 (PC-3 prostate): 1.76 µM
TGI (PC-3 prostate): 4.09 µM
GI50 (SF-295 CNS): 1.75 µM
TGI (SF-295 CNS): 3.43 µM
GI50 (UACC-257 melanoma): 1.71 µM
TGI (UACC-257 melanoma): 3.56 µM
GI50 (NCI-H522 lung): 1.87 µM
TGI (NCI-H522 lung): 3.84 µM
GI50 (K-562 leukemia): 1.84 µM
TGI (K-562 leukemia): 5.5 µM
GI50 (M14 melanoma): 1.71 µM
TGI (M14 melanoma): 3.25 µM
GI50 (A549 NSCLC): 1.62 µM
TGI (A549 NSCLC): 3.54 µM
GI50 (RPMI-8226 leukemia): 2.93 µM
TGI (RPMI-8226 leukemia): 9.38 µM
GI50 (MOLT-4 leukemia): 1.71 µM
TGI (MOLT-4 leukemia): 5.07 µM
GI50 (HCC-2998 colon): 1.74 µM
TGI (HCC-2998 colon): 3.17 µM
GI50 (HL-60(TB) leukemia): 1.99 µM
TGI (HL-60(TB) leukemia): 5.06 µM
GI50 (MDA-MB-435): 1.76 µM
TGI (MDA-MB-435): 3.38 µM
GI50 (DU-145 prostate): 1.78 µM
TGI (DU-145 prostate): 3.61 µM
GI50 (IGROV1 ovarian): 1.71 µM
TGI (IGROV1 ovarian): 3.38 µM
GI50 (RXF 393 renal): 1.82 µM
TGI (RXF 393 renal): 3.47 µM
GI50 (HOP-62 NSCLC): 1.72 µM
TGI (HOP-62 NSCLC): 3.48 µM
GI50 (LOX IMVI melanoma): 1.61 µM
TGI (LOX IMVI melanoma): 2.96 µM
GI50 (SNB-75 CNS): 1.75 µM
TGI (SNB-75 CNS): 4.03 µM
GI50 (SK-MEL-2 melanoma): 1.93 µM
TGI (SK-MEL-2 melanoma): 4.2 µM
GI50 (SK-MEL-28 melanoma): 1.72 µM
TGI (SK-MEL-28 melanoma): 3.23 µM
GI50 (COLO 205 colon): 2.56 µM
TGI (COLO 205 colon): 6.65 µM
GI50 (HCT-116 colon): 1.55 µM
TGI (HCT-116 colon): 2.96 µM
GI50 (KM12 colon): 1.49 µM
TGI (KM12 colon): 3.96 µM
GI50 (NCI-H23 lung): 1.91 µM
TGI (NCI-H23 lung): 3.98 µM
GI50 (HT29 colon): 1.91 µM
TGI (HT29 colon): 3.62 µM
GI50 (SNB-19 CNS): 1.89 µM
TGI (SNB-19 CNS): 3.83 µM
GI50 (SK-OV-3 ovarian): 13.7 µM
TGI (SK-OV-3 ovarian): 29.1 µM
GI50 (MALME-3M melanoma): 1.74 µM
TGI (MALME-3M melanoma): 3.2 µM
GI50 (786-0 renal): 1.76 µM
TGI (786-0 renal): 3.2 µM

NCCOc1ncccc1/C=C1\c2ccccc2-c2ccc(F)cc21
GI50 (MDA-MB-468 breast): 1.33 µM
TGI (MDA-MB-468 breast): 2.84 µM

COc1ccc(/C=C/c2nnc(/C=C/c3ccc(OC)c(OC)c3)o2)cc1OC
GI50 (MDA-MB-468 breast): 2.88 µM
TGI (MDA-MB-468 breast): 27.5 µM

O=S1CCN(Cc2ccc(-c3ccc4ncnc(Nc5ccc(OCc6cccc(F)c6)c(Cl)c5)c4c3)o2)CC1
GI50 (MDA-MB-468 breast): 0.00568 µM
TGI (MDA-MB-468 breast): 0.0466 µM

NS(=O)(=O)N(c1cc(C(F)(F)F)cc(C(F)(F)F)c1)C1CCN(Cc2ccc(F)cc2)CC1
GI50 (MDA-MB-468 breast): 1.86 µM
TGI (MDA-MB-468 breast): 4.76 µM

O=S1CCN(Cc2ccc(-c3ccc4ncnc(Nc5ccc(OCc6ccccc6)c(Cl)c5)c4c3)o2)CC1
GI50 (MDA-MB-468 breast): 0.0449 µM
TGI (MDA-MB-468 breast): 0.376 µM

Clc1ccc(CCC(Cn2ccnc2)Sc2c(Cl)cccc2Cl)cc1 (stereo not drawn)
GI50 (MDA-MB-468 breast): 2.13 µM
TGI (MDA-MB-468 breast): 7.49 µM

Nc1cc2c([nH]c[n+]2CC#CCCl)c(SCC#CCCl)n1
GI50 (MDA-MB-468 breast): 0.734 µM
TGI (MDA-MB-468 breast): 2.4 µM

CCN1CCC(Oc2c(C#N)ncc3[nH]c4ncccc4c23)CC1
GI50 (MDA-MB-468 breast): 16 µM
TGI (MDA-MB-468 breast): 33.3 µM

Cn1ncc2c(Sc3ccc(Cl)cc3)ncnc21
GI50 (MDA-MB-468 breast): 20.7 µM
TGI (MDA-MB-468 breast): > 100 µM

N#Cc1c(-c2ccccc2)cc(-c2ccccc2)n(CC(=O)NO)c1=O
GI50 (MDA-MB-468 breast): 3.48 µM
TGI (MDA-MB-468 breast): 14.5 µM

CC(=O)c1nc2ccccc2n1CCN1CCN(C)CC1
GI50 (MDA-MB-468 breast): 1.91 µM
TGI (MDA-MB-468 breast): > 22.3 µM

Reference: PubChem BioAssay (NCI)
